According to patent publication US20230416237A1, “AMIDE COMPOUND, PHARMACEUTICAL COMPOSITION AND USE THEREOF” (SHENZHEN BO LI JIAN MEDICINE CO., LTD., priority 2020, published 2023):

What was measured:
JAK2 = JAK2 (Homo sapiens (Human), UniProt O60674); test: JAK2 inhibitory activity, mobility shift assay, 1 mM ATP; format: biochemical; conditions: Table 7
Procedure: (§1) The JAK1 inhibitory activity and the JAK2 inhibitory activity of the amide compounds provided in the above examples were tested by the method below.
(§2) Specific steps are described below. • 1. A 1× Kinase buffer was formulated. • 2. Concentration gradients of the compound were formulated: a test compound with an initial concentration of 10000 nM (JAK1) or 30000 nM (JAK2) was diluted in a 384-well plate to a 100% DMSO solution with a 100-fold final concentration, wherein the compound was diluted by a fold of 3 to 10 concentrations. 250 nL of the compound with the 100-fold final concentration was transferred with a dispenser Echo 550 to the target plate. • 3. A kinase solution with a 2.5-fold final concentration was prepared with the 1× Kinase buffer. • 4. […] The plate was centrifuged at 1000 rpm for 30 s, shaken and uniformly mixed, and incubated for 10 min at room temperature. • 6. A mixed solution of ATP (the final concentration of ATP=1 mM) and Kinase substrate with a 5/3-fold final concentration was formulated with the 1× Kinase buffer. • 7. 15 μL of the mixed solution of ATP and the substrate with the 5/3-fold final concentration was added to initiate the reaction. • 8. The 384-well plate was centrifuged at 1000 rpm for 30 s, shaken and uniformly mixed, and incubated for respective times at room temperature. • 9. The kinase reaction was stopped by adding 30 μL of a detection termination solution, and the plate was centrifuged at 1000 rpm for 30 s and shaken and uniformly mixed. • 10. The conversion rate was read with Caliper EZ Reader and the half maximal inhibitory concentration (IC50) was calculated.

JAK1 = JAK1 (Homo sapiens (Human), UniProt P23458); test: JAK1 inhibitory activity, mobility shift assay, 1 mM ATP; format: biochemical; conditions: 1 mM ATP; Table 7
Procedure: as §1, §2

Sequence of JAK1 (P23458 850-1154): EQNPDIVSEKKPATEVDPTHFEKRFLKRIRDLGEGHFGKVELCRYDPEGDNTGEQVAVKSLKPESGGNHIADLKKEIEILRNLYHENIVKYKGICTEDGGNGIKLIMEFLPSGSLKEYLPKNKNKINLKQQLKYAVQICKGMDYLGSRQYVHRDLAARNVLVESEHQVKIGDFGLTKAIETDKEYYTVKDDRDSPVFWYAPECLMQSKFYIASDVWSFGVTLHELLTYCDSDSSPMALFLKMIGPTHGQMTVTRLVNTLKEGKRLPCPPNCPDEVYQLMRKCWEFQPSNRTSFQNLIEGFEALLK
Sequence of JAK2 (O60674 826-1132): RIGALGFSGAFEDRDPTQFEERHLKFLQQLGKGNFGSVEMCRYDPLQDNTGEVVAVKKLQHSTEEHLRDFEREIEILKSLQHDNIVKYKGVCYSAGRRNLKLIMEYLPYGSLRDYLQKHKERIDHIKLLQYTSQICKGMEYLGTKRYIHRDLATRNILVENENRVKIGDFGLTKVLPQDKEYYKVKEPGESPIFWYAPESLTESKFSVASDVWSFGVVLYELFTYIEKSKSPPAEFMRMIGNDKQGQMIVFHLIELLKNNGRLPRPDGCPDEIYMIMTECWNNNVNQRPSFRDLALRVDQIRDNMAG

Row | Compound | IC50 (JAK2) [nM] | IC50 (JAK1) [nM]
1 | COc1nn(C)cc1Nc1ncc(F)c(-c2c[nH]c3c(NC(=O)[C@@H]4CCCN4S(C)(=O)=O)cccc23)n1 [Example 1, (S)—N-(3-(5-fluoro-2-((3-methoxy-1-methyl-1H-pyrazol-4-yl)amino)pyrimidin-4-yl)-1H-indol-7-yl)-1-(methanesulfonyl)pyrrolidine-2-carboxamide] | 2820 | 73
2 | CCS(=O)(=O)N1CCC[C@H]1C(=O)Nc1cccc2c(-c3nc(Nc4cn(C)nc4OC)ncc3F)c[nH]c12 [Example 2, (S)-N-(3-(5-fluoro-2-((3-methoxy-1-methyl-1H-pyrazol-4-yl)amino)pyrimidin-4-yl)-1H-indol-7-yl)-1-(ethanesulfonyl)pyrrolidine-2-carboxamide] | 1850 | 137
3 | COc1nn(C)cc1Nc1ncc(C)c(-c2c[nH]c3c(NC(=O)[C@@H]4CCCN4S(C)(=O)=O)cccc23)n1 [Example 3, (S)-N-(3-(2-((3-methoxy-1-methyl-1H-pyrazol-4-yl)amino)-5-methylpyrimidin-4-yl)-1H-indol-7-yl)-1-(methanesulfonyl)pyrrolidine-2-carboxamide] | 2210 | 70
4 | COc1nn(C)cc1Nc1ncc(Cl)c(-c2c[nH]c3c(NC(=O)[C@@H]4CCCN4S(C)(=O)=O)cccc23)n1 [Example 4, (S)-N-(3-(5-chloro-2-((3-methoxy-1-methyl-1H-pyrazol-4-yl)amino)pyrimidin-4-yl)-1H-indol-7-yl)-1-(methanesulfonyl)pyrrolidine-2-carboxamide] | 652 | 53
5 | COc1nn(C)cc1Nc1ncc(F)c(-c2c[nH]c3c(NC(=O)[C@H]4CCCN4C4CCNCC4)cccc23)n1 [Example 5, (R)—N-(3-(5-fluoro-2-((3-methoxy-1-methyl-1H-pyrazol-4-yl)amino)pyrimidin-4-yl)-1H-indol-7-yl)-1-(piperidin-4-yl)pyrrolidine-2-carboxamide] | 4300 | 55
6 | COc1nn(C)cc1Nc1ncc(F)c(-c2c[nH]c3c(NC(=O)[C@H]4C[C@H](F)CN4C4CCNCC4)cccc23)n1 [Example 6, (2R,4S)-4-fluoro-N-(3-(5-fluoro-2-((3-methoxy-1-methyl-1H-pyrazol-4-yl)amino)pyrimidin-4-yl)-1H-indol-7-yl)-1-(piperidin-4-yl)pyrrolidine-2-carboxamide] | 4000 | 68
7 | COc1nn(C)cc1Nc1ncc(F)c(-c2c[nH]c3c(NC(=O)[C@H]4C[C@@H](F)CN4C4CCNCC4)cccc23)n1 [Example 7, (2R,4R)-4-fluoro-N-(3-(5-fluoro-2-((3-methoxy-1-methyl-1H-pyrazol-4-yl)amino)pyrimidin-4-yl)-1H-indol-7-yl)-1-(piperidin-4-yl)pyrrolidine-2-carboxamide] | 4410 | 152
8 | COc1nn(C)cc1Nc1ncc(F)c(-c2c[nH]c3c(NC(=O)[C@H]4C[C@@H](OC)CN4C4CCNCC4)cccc23)n1 [Example 8, (2R,4R)-N-(3-(5-fluoro-2-((3-methoxy-1-methyl-1H-pyrazol-4-yl)amino)pyrimidin-4-yl)-1H-indol-7-yl)-4-methoxy-1-(piperidin-4-yl)pyrrolidine-2-carboxamide] | 10500 | 1170
9 | COc1nn(C)cc1Nc1ncc(F)c(-c2c[nH]c3c(NC(=O)[C@H]4C[C@H](OC)CN4C4CCNCC4)cccc23)n1 [Example 9, (2R,4S)-N-(3-(5-fluoro-2-((3-methoxy-1-methyl-1H-pyrazol-4-yl)amino)pyrimidin-4-yl)-1H-indol-7-yl)-4-methoxy-1-(piperidin-4-yl)pyrrolidine-2-carboxamide] | 5000 | 51
10 | COc1nn(C)cc1Nc1ncc(F)c(-c2c[nH]c3c(NC(=O)[C@H]4CCCN4C4CCN(C)CC4)cccc23)n1 [Example 10, (R)-N-(3-(5-fluoro-2-((3-methoxy-1-methyl-1H-pyrazol-4-yl)amino)pyrimidin-4-yl)-1H-indol-7-yl)-1-(1-methylpiperidin-4-yl)pyrrolidine-2-carboxamide] | 14600 | 104
11 | COc1nn(C)cc1Nc1ncc(C)c(-c2c[nH]c3c(NC(=O)[C@H]4CCCN4C4CCN(C)CC4)cccc23)n1 [Example 11, (R)-N-(3-(2-((3-methoxy-1-methyl-1H-pyrazol-4-yl)amino)-5-methylpyrimidin-4-yl)-1H-indol-7-yl)-1-(1-methylpiperidin-4-yl)pyrrolidine-2-carboxamide] | 12100 | 69
12 | CCO[C@H]1C[C@H](C(=O)Nc2cccc3c(-c4nc(Nc5cn(C)nc5OC)ncc4C)c[nH]c23)N(C2CCN(C)CC2)C1 [Example 12, (2R,4S)-4-ethoxy-N-(3-(2-((3-methoxy-1-methyl-1H-pyrazol-4-yl)amino)-5-methylpyrimidin-4-yl)-1H-indol-7-yl)-1-(1-methylpiperidin-4-yl)pyrrolidine-2-carboxamide] | 12000 | 103

More lines, now with the values ahead:

Row | IC50 (JAK2) [nM] | IC50 (JAK1) [nM] | Compound
13 | 10200 | 108 | COc1nn(C)cc1Nc1nccc(-c2c[nH]c3c(NC(=O)[C@H]4C[C@H](F)CN4[C@@H]4CCNC4)cccc23)n1 (single isomer, unassigned) [Example 18]
14 | 15500 | 368 | COc1nn(C)cc1Nc1nccc(-c2c[nH]c3c(NC(=O)[C@H]4C[C@H](F)CN4[C@H]4CCNC4)cccc23)n1 (single isomer, unassigned) [Example 19]
15 | 21500 | 120 | COc1nn(C)cc1Nc1nccc(-c2c[nH]c3c(NC(=O)[C@H]4C[C@H](F)CN4[C@@H]4CCN(C)C4)cccc23)n1 (single isomer, unassigned) [Example 20]
16 | > 30000 | 262 | COc1nn(C)cc1Nc1nccc(-c2c[nH]c3c(NC(=O)[C@H]4C[C@H](F)CN4[C@H]4CCN(C)C4)cccc23)n1 (single isomer, unassigned) [Example 21]
17 | 14500 | 101 | COc1nn(C)cc1Nc1ncc(C)c(-c2c[nH]c3c(NC(=O)[C@H]4C[C@H](OC)CN4C4CCN(C)CC4)cccc23)n1 [Example 13, (2R,4S)-4-methoxy-N-(3-(2-((3-methoxy-1-methyl-1H-pyrazol-4-yl)amino)-5-methylpyrimidin-4-yl)-1H-indol-7-yl)-1-(1-methylpiperidin-4-yl)pyrrolidine-2-carboxamide]
18 | 6620 | 41 | COc1nn(C)cc1Nc1ncc(C)c(-c2c[nH]c3c(NC(=O)[C@H]4C[C@H](F)CN4C4CCN(C)CC4)cccc23)n1 [Example 14, (2R,4S)-4-fluoro-N-(3-(2-((3-methoxy-1-methyl-1H-pyrazol-4-yl)amino)-5-methylpyrimidin-4-yl)-1H-indol-7-yl)-1-(1-methylpiperidin-4-yl)pyrrolidine-2-carboxamide]
19 | 3640 | 27 | COc1nn(C)cc1Nc1ncc(Cl)c(-c2c[nH]c3c(NC(=O)[C@H]4CCCN4C4CCN(C)CC4)cccc23)n1 [Example 15, (R)-N-(3-(5-chloro-2-((3-methoxy-1-methyl-1H-pyrazol-4-yl)amino)pyrimidin-4-yl)-1H-indol-7-yl)-1-(1-methylpiperidin-4-yl)pyrrolidine-2-carboxamide]
20 | 3340 | 40 | COc1nn(C)cc1Nc1ncc(C)c(-c2c[nH]c3c(NC(=O)[C@H]4CC(F)(F)CN4C4CCN(C)CC4)cccc23)n1 [Example 16, (R)-4,4-difluoro-N-(3-(2-((3-methoxy-1-methyl-1H-pyrazol-4-yl)amino)-5-methylpyrimidin-4-yl)-1H-indol-7-yl)-1-(1-methylpiperidin-4-yl)pyrrolidine-2-carboxamide]
21 | 10500 | 216 | COc1nn(C)cc1Nc1nccc(-c2c[nH]c3c(NC(=O)[C@H]4CC(F)(F)CN4C4CCN(C)CC4)cccc23)n1 [Example 17, (R)-4,4-difluoro-N-(3-(2-((3-methoxy-1-methyl-1H-pyrazol-4-yl)amino)pyrimidin-4-yl)-1H-indol-7-yl)-1-(1-methylpiperidin-4-yl)pyrrolidine-2-carboxamide]
22 | 7280 | 46 | COc1nn(C)cc1Nc1ncc(F)c(-c2c[nH]c3c(NC(=O)[C@H]4CCCN4[C@@H]4CCNC4)cccc23)n1 [Example 22, (2R,3′R)-N-(3-(5-fluoro-2-((3-methoxy-1-methyl-1H-pyrazol-4-yl)amino)pyrimidin-4-yl)-1H-indol-7-yl)-[1,3′-bipyrrolidine]-2-carboxamide]
23 | 5370 | 59 | COc1nn(C)cc1Nc1ncc(F)c(-c2c[nH]c3c(NC(=O)[C@H]4CCCN4[C@H]4CCNC4)cccc23)n1 [Example 23, (2R,3′S)-N-(3-(5-fluoro-2-((3-methoxy-1-methyl-1H-pyrazol-4-yl)amino)pyrimidin-4-yl)-1H-indol-7-yl)-[1,3′-bipyrrolidine]-2-carboxamide]
24 | 14600 | 40 | COc1nn(C)cc1Nc1ncc(F)c(-c2c[nH]c3c(NC(=O)[C@H]4CCCN4[C@@H]4CCN(C)C4)cccc23)n1 [Example 24, (2R,3′R)-N-(3-(5-fluoro-2-((3-methoxy-1-methyl-1H-pyrazol-4-yl)amino)pyrimidin-4-yl)-1H-indol-7-yl)-1′-methyl-[1,3′-bipyrrolidine]-2-carboxamide]
